Assay [1] relates to PBMCs obtained from dogs immunised with peptide vaccines. The experiment in a line: In vitro T cell proliferation assay without enrichment, PBMCs of peptide-vaccinated dogs against Th-epitope and truncated versions. The following applies: dogs of Example 2 immunised with the respective Th-epitope-LHRH; FIGS. 2-4. The format is cell-based, dog. How it is done: The assay was carried out without the enrichment of PBMCs. PBMCs obtained from Ficoll gradient purification were directly tested against the respective Th-epitope and its truncated versions. […] Truncated versions of the respective Th-epitopes were also tested to more closely define the T-cell activity within the sequences. […] This implies that the T-cell activity is towards the N-terminus or middle of the 17-residue peptide.

Assay [2] has as its system LHRH. The assay can be described thus: Trial K9-8: antibody response to LHRH by ELISA. The format is in vivo, dog. The following applies: for antibody responses to LHRH: Trial K9-8, T-cell-LHRH constructs named by their T-cell epitope. How it is done:
A total of 35 dogs mixed sex were used in this trial. All had been previously vaccinated with a live CDV vaccine but had not been vaccinated against LHRH.
The T-Helper epitopes were linked to a truncated form of LHRH, containing amino acids 2 to 10 of the native 10 amino acid sequence, as shown below:
All vaccines were formulated as for Example 2, ie each 1 mL dose of vaccine contained 40nmoles of peptide, 150 μg Iscomatrix™, and thiomersal as preservative.
Where dogs were vaccinated with a pool of peptides, the concentration of each peptide was adjusted to give equal concentrations and a total amount of 40 nmoles of LHRH epitope per 1 mL dose.
All dogs were vaccinated with a 1 mL dose, delivered in the scruff of the neck. Vaccinations were given at 0 and 4 weeks and venous blood samples were obtained at intervals during the trial.
Effective T-cell help was determined by measuring the antibody response to LHRH by ELISA. Biological effectiveness of the peptide based vaccine was determined by measuring the levels of progesterone in female dogs and testosterone in male dogs.
A general note: In an ELISA, binding on a coated surface is turned into a signal by an enzyme label.

Assay [3] concerns PBMCs from dogs immunised with CDV. The assay can be described thus: T-cell proliferation after in vitro stimulation of PBMC with peptide pools, tested with autologous APCs and single peptides. The format is cell-based, dog. How it is done:
An alternate strategy was used to increase the precursor frequency of specific T cells recognising the CDV peptides. Fresh PBMCs obtained from these hyperimmunised dogs were subjected to stimulation in vitro with pools of all 94 peptides for 30 minutes at 37° C. The cells were then washed to remove any excess peptides and cultured for 7 days. This population of T cells was then tested with autologous APCs with every single peptide as the antigen.
To confirm this observation, the same four dogs were bled again, five weeks after receiving the dose of killed virus. The PBMCs were stimulated in vitro with pools of either all 94 peptides or peptides 21-40 (because most of the activity was in this region) and after 7 days of culture the stimulated T cells were tested against individual peptides. Significant stimulatory indices were obtained with all peptides, confirming the above results. Four more dogs which received only one dose of 3 in 1 vaccine were tested using the in vitro stimulation method and all four dogs responded to the majority of peptides shown in Table 2.
Once again the same peptides and one additional peptide P32 were tested on cells from additional dogs.

In assay [4] the test system is LHRH. The assay can be described thus: Trial in BALB/c mice: antibody response to LHRH by ELISA. In kind it is in vivo. How it is done:
The canine vaccines with CDV-F derived Th-epitopes and LHRH used in Example 3 were also used to immunise BALB/c mice to investigate if the Th-epitopes would be functional in a different animal species.
All vaccines were formulated as for Example 3 except that they were diluted further so that 100 μl doses contained 2.7 nmoles of peptide and 10 μg of Iscomatrix™ and thiomersol as preservative.
Mice were vaccinated with 100 μl of the vaccine at the base of tail. Vaccinations were given at 0 and 4 weeks and animals bled at intervals after each vaccination from the retro-orbital plexus. Effective T-cell help was determined by measuring the antibody response to LHRH by ELISA.

For assay [5], the system named is LHRH. The experiment in a line: Trial K9-5: antibody response to LHRH by ELISA. The format is in vivo, dog. The following applies: Trial K9-5, text.
Where [6] appears, read: Table 1, Beagle Foxhound (Dog #18), hyperimmunised, PBMC stimulated with pool of all 94 peptides, 7 days culture.
The mark [7] stands for this setting: Table 1, Beagle Foxhound (Dog #19).
Setting [8] is: Table 1, Beagle Foxhound (Dog #20).
The mark [9] stands for this setting: Table 1, Beagle Foxhound (Dog #21).
The mark [10] stands for this setting: Table 2, Beagle Foxhound (Dog #71), one dose of 3 in 1 vaccine.
Setting [11] is: Table 2, Beagle Foxhound (Dog #72), one dose of 3 in 1 vaccine.
Setting [12] is: Table 2, Beagle Foxhound (Dog #73), one dose of 3 in 1 vaccine.
[13] abbreviates: Table 3, Kelpie Foxhound (Dog #125).
Setting [14] is: Table 3, Kelpie Foxhound (Dog #126).

Ends that are not written are not given here.

On to “KLIPNASLIENCTKAEL (canine distemper virus; synthetic peptide from canine distemper virus fusion protein (CDV-F) designated peptide P25)”, for which the “Stimulation indices to Th-epitope and its truncated versions” value (“Stimulation indices” below) in assay [1] is “the full sequence of 17 residues was better than the shorter peptides of 15 and 12 residues”. In addition, the “antibody responses to LHRH” value in assay [2] is reported as “Strong antibody responses”. Also, the Stimulatory index in assay [3] (setting [6]) is given as 3.2; in assay [3] (setting [7]), 11.9; in assay [3] (setting [8]), 4.5; in assay [3] (setting [9]) it was 17; in assay [3] (Table 2, Beagle Foxhound (Dog #70), one dose of 3 in 1 vaccine), 1.5; in assay [3] (setting [10]), 2.9. The Stimulatory index is 2 in assay [3] (setting [11]); 12 in assay [3] (setting [12]); under 2 in assay [3] (Table 5, Border Collie); 2.6 in assay [3] (Table 5, Fox Terrier); under 2 in assay [3] (Table 5, Grey hound); 2.6 in assay [3] (Table 5, Kelpie Pointer). In addition, the Stimulatory index is on record as under 2 in assay [3] (Table 5, Poodle Shitzu) and under 2 in assay [3] (Table 5, Terrier Cross).

Take TAAQITAGIALHQSNLN [Peptide P35]: the “antibody titres to LHRH” value in assay [4] (BALB/c mice) is given as “low antibody titres”. Also, the “Stimulation indices” value in assay [1] is reported as “the other three dogs responded as well to the 12 residue peptide as to the full length 17 residue one”. For the same substance, the “antibody responses to LHRH” value in assay [2] was “Strong antibody responses”. Further, the Stimulatory index was 3.1 in assay [3] (setting [6]); 57 in assay [3] (setting [7]); 3.3 in assay [3] (setting [8]); 22 in assay [3] (setting [9]); 1.7 in assay [3] (setting [11]); 6.8 in assay [3] (setting [12]). Moreover, the Stimulatory index in assay [3] (setting [13]) is on record as 3.8; in assay [3] (setting [14]), 10; in assay [3] (Table 5, Border Collie), 2; in assay [3] (Table 5, Fox Terrier), 2.2; in assay [3] (Table 5, Grey hound), under 2; in assay [3] (Table 5, Kelpie Pointer) it was 2. Further, the Stimulatory index in assay [3] (Table 5, Poodle Shitzu) is given as under 2; in assay [3] (Table 5, Terrier Cross), under 2.

Turning to “AELGEYEKLLNSVLEPI (canine distemper virus; synthetic peptide from canine distemper virus fusion protein (CDV-F) designated peptide P27)”, in assay [1], the “Stimulation indices” value is reported as “the 17 residue long peptide was a better simulator than the 15-mer”. Besides, the “antibody responses to LHRH” value in assay [2] was “Strong antibody responses”. The Stimulatory index in assay [3] (setting [6]) turned out to be 3.3; in assay [3] (setting [7]), 34; in assay [3] (setting [8]), 6.7; in assay [3] (setting [9]), 14.8; in assay [3] (setting [10]), 2.7; in assay [3] (setting [11]), 3.5. For the same substance, the Stimulatory index is on record as 4.8 in assay [3] (setting [12]), 4.5 in assay [3] (setting [13]) and 8.5 in assay [3] (setting [14]).

In the case of “P35-LHRH: T-helper epitope P35 linked to truncated LHRH, amino acids 2 to 10 (SEQ ID NO: 29) (HWSYGLRPG; not fully specified (N-terminus); ends and bridges not checked; also: linked to T-helper epitope P35; listed as Homo sapiens) [Peptide P35-LHRH]”, the Anti-LHRH antibody titre in assay [4] (2 weeks post second vaccination, Mouse 1) is listed as 1,412; in assay [4] (2 weeks post second vaccination, Mouse 2), 800; in assay [4] (2 weeks post second vaccination, Mouse 3) it was under 100; in assay [4] (2 weeks post second vaccination, Mouse 4) it was under 100; in assay [4] (2 weeks post second vaccination, Mouse 5), under 100; in assay [4] (4 weeks post first vaccination, Mouse 1, 2.7 nmoles peptide, base of tail), under 100. The Anti-LHRH antibody titre is under 100 in assay [4] (4 weeks post first vaccination, Mouse 2); under 100 in assay [4] (4 weeks post first vaccination, Mouse 3); under 100 in assay [4] (4 weeks post first vaccination, Mouse 4); under 100 in assay [4] (4 weeks post first vaccination, Mouse 5). The “antibody response to the B-cell epitope (LHRH)” value in assay [5] is recorded as “strong antibody responses”. Also, the “Anti LHRH Titres, 2 wks post boost, GMT” value in assay [2] (group GMT) was found to be 103085. For the same substance, in assay [2] (group GMT), the “Anti LHRH Titres, 4 wks after primary, GMT” value worked out at 2469. Further, in assay [2] (group GMT), the “Anti LHRH Titres, 4 wks post boost, GMT” value turned out to be 58002.

These data come from patent publication US7572454B2, “T helper cell epitopes” (priority 1999, dated 2009).
